Measurements taken from patent US10781204B2, “TYK2 inhibitors and uses thereof” (Nimbus Lakshmi, Inc., priority 2015, dated 2020).
pEC50, pKi: −log10 of the molar value.

Tests used:
[1] = system: Tyk2-pSTAT4 (IL-12 induced pSTAT4); experiment: IL-12 induced pSTAT4 in human PBMC; assay type: cell-based; conditions: Homo sapiens, PBMC, 0.5 h, 1.7 ng/mL IL-12, 30 minutes
Procedure: (§1) Human PBMC are isolated from buffy coat and are stored frozen for assays as needed. Cells for assay are thawed and resuspended in complete media containing serum, then cells are diluted to 1.67 E6 cells/ml so that 120 ul per well is 200,000 cells. 15 ul of compound or DMSO is added to the well at the desired concentrations and incubated at 1 hr at 37 C. 15 ul of stimulus (final concentration of 1.7 ng/mL IL-12) is added for 30 minutes prior to pSTAT4 and total STAT4 analysis using cell lysates prepared and analyzed by MSD reagents as per manufacturer protocol. The final DMSO concentration of compound in the assay is 0.1%.

JAK2 = JAK2 (Homo sapiens (Human), UniProt O60674); experiment: JAK2 radioactive kinase assay; assay type: biochemical; conditions: ATP 10 μM
Outline: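 Radiometric assay in Hepes pH 7.5, MgCl2, EGTA, Brij35, BSA, DTT, 1% DMSO, with 10 μM [33P]ATP, 120 min at room temp; P81 paper capture and counting. […]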

TYK2 = TYK2 (Homo sapiens (Human), UniProt P29597); experiment: Tyk2 radioactive kinase assay; assay type: biochemical; conditions: ATP 10 μM
Outline: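 Recombinant human TYK2 (Invitrogen) was mixed with 20 μM peptide substrate in a buffer of 20 mM Hepes pH 7.5, 10 mM MgCl2, 1 mM EGTA, 0.02% Brij35, 0.02 mg/mL BSA, 0.1 mM […], 2 mM DTT and 1% DMSO, and compounds in DMSO were added. Adding ^33P-ATP (10 μM ATP) started the reaction, which ran 120 min at room temperature. Mixtures were then spotted onto P81 ion-exchange paper, washed thoroughly in 0.75% phosphoric acid, and counted for radioactivity.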

[2] = system: JAK2-pSTAT5 (GM-CSF induced pSTAT5); experiment: GM-CSF induced pSTAT5 in human PBMC; assay type: cell-based; conditions: 20 min, 5 ng/mL GM-CSF
Procedure: as §1
Cells are prepared for analysis as in the above procedure and 15 ul of GM-CSF (final concentration 5 ng/mL) is added for 20 minutes prior to pSTAT5 and total STAT5 analysis using cell lysates prepared and analyzed by MSD reagents as per manufacturer protocol. The final DMSO concentration of compound in the assay is 0.1%.

Sequence of TYK2 (P29597 whole entry): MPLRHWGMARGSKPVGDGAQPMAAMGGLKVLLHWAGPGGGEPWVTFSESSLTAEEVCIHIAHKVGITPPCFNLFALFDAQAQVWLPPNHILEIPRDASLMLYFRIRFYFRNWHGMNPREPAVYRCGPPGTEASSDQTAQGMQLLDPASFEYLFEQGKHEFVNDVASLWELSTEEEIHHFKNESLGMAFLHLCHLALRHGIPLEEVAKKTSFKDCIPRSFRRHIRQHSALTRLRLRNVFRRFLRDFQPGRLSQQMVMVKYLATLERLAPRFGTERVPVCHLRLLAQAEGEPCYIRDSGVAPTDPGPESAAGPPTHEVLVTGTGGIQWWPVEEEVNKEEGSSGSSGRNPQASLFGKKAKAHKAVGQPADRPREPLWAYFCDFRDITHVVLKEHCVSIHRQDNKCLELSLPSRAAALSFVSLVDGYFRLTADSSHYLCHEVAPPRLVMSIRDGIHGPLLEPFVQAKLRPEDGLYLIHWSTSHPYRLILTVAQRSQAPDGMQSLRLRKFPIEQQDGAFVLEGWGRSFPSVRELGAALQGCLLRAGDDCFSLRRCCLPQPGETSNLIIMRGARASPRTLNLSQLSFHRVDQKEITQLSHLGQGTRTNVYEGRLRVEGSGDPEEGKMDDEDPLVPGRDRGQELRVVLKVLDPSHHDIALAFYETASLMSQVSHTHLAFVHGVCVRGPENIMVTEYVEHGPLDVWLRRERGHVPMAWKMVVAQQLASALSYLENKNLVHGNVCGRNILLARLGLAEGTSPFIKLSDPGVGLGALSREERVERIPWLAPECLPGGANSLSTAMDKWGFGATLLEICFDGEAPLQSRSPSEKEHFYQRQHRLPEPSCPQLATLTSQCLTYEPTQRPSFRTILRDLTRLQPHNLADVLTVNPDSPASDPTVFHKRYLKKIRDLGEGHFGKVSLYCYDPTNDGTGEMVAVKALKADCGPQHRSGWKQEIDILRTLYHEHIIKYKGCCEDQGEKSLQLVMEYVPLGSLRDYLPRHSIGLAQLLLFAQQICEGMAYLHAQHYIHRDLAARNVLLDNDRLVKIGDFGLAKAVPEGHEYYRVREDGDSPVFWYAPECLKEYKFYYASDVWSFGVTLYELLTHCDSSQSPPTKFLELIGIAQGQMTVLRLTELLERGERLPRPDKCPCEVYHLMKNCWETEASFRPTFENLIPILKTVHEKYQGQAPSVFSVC
Sequence of JAK2 (O60674 whole entry): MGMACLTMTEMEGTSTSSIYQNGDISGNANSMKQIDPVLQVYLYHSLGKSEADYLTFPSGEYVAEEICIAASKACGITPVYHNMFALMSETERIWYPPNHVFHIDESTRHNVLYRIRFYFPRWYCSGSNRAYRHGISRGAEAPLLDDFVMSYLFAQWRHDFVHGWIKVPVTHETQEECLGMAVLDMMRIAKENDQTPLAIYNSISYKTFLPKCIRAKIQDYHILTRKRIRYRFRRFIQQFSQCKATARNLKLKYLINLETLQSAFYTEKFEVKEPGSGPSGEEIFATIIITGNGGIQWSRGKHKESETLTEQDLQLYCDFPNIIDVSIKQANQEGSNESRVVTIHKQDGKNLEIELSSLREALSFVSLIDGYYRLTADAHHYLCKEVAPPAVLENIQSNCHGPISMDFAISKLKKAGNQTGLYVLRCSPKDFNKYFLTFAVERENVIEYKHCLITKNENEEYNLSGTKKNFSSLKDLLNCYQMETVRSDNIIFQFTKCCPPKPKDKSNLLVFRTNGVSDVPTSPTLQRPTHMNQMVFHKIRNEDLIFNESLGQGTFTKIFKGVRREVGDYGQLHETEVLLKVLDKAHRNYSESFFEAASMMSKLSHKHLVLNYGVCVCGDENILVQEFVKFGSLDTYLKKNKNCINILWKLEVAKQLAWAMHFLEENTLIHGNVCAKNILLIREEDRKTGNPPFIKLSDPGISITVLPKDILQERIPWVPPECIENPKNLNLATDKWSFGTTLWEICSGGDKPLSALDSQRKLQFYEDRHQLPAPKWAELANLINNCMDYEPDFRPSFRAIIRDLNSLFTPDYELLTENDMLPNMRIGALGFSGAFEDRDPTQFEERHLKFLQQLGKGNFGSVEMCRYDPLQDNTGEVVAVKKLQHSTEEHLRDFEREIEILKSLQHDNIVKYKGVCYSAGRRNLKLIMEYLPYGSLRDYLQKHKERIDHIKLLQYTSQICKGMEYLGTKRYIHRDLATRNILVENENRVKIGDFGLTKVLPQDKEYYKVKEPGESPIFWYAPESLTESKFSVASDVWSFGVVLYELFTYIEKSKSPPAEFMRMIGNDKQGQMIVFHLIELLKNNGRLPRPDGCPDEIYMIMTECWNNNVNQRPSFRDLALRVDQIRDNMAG

Compound | pEC50 [1] | pKi (JAK2) | pKi (TYK2) | pEC50 ([2]; Homo sapiens, PBMC) | pEC50 [2]
C[C@@]1(O)CN(c2ccn(-c3cc(-c4c(F)cccc4C#N)nc4c3C(=O)NC4)n2)C[C@@](C)(O)C1 [I-145, 2-(4-(3-((3S,5S)-3,5-dihydroxy-3,5-dimethylpiperidin-1-yl)-1H-pyrazol-1-yl)-5-oxo-6,7-dihydro-5H-pyrrolo[3,4-b]pyridin-2-yl)-3-fluorobenzonitrile] | – | 7.00 to 8.00 | 8.00 to 10.00 | < 5.70 | –
N#Cc1cccc(F)c1-c1cc(-n2cc3c(n2)CC(C(N)=O)CN3)c2c(n1)CNC2=O (centres unmarked) [I-180, 2-(2-(2-cyano-6-fluorophenyl)-5-oxo-6,7-dihydro-5H-pyrrolo-[3,4-b]pyridin-4-yl)-4,5,6,7-tetrahydro-2H-pyrazolo[4,3-b]pyridine-6-carboxamide] | – | 7.00 to 8.00 | 8.00 to 10.00 | < 5.70 | –
N#Cc1cccc(F)c1-c1cc(-n2ccc(C3CCCO3)n2)c2c(n1)CNC2=O (centres unmarked) [I-101, 3-fluoro-2-(5-oxo-4-(3-(tetrahydrofuran-2-yl)-1H-pyrazol-1-yl)-6,7-dihydro-5H-pyrrolo[3,4-b]pyridin-2-yl)benzonitrile] | – | 7.00 to 8.00 | 8.00 to 10.00 | < 5.70 | –
N#Cc1cccc(F)c1-c1cc(-c2cc3n(n2)CC(O)CN3)c2c(n1)CNC2=O (centres unmarked) [I-235, 3-fluoro-2-(4-(6-hydroxy-4,5,6,7-tetrahydropyrazolo[1,5-a]pyrimidin-2-yl)-5-oxo-6,7-dihydro-5H-pyrrolo[3,4-b]pyridin-2-yl)benzonitrile] | – | 8.00 to 10.00 | 8.00 to 10.00 | < 5.70 | –
CC1(C)COC(c2ccn(-c3cc(-c4c(F)cccc4C#N)nc4c3C(=O)NC4)n2)=N1 [I-60, 2-(4-(3-(4,4-dimethyl-4,5-dihydrooxazol-2-yl)-1H-pyrazol-1-yl)-5-oxo-6,7-dihydro-5H-pyrrolo[3,4-b]pyridin-2-yl)-3-fluorobenzonitrile] | – | 7.00 to 8.00 | 8.00 to 10.00 | < 5.70 | –
CCNC(=O)Cc1ccn(-c2cc(-c3c(F)cccc3F)nc3c2C(=O)NC3)n1 [I-2, 2-(1-(2-(2,6-difluorophenyl)-5-oxo-6,7-dihydro-5H-pyrrolo[3,4-b]pyridin-4-yl)-1H-pyrazol-3-yl)-N-ethylacetamide] | – | ≤ 6.00 | 7.00 to 8.00 | – | < 5.70
CC1CC(O)CC(C)N1c1ccn(-c2cc(-c3c(F)cccc3C#N)nc3c2C(=O)NC3)n1 (centres unmarked) [I-85, 3-fluoro-2-(4-(3-(4-hydroxy-2,6-dimethylpiperidin-1-yl)-1H-pyrazol-1-yl)-5-oxo-6,7-dihydro-5H-pyrrolo[3,4-b]pyridin-2-yl)benzonitrile] | – | ≤ 6.00 | 7.00 to 8.00 | < 5.70 | –
O=C1NCc2nc(-c3c(F)cccc3F)cc(-n3ccc(N4CCOCC4CO)n3)c21 (centres unmarked) [I-90, 2-(2,6-difluorophenyl)-4-(3-(3-(hydroxymethyl)morpholino)-1H-pyrazol-1-yl)-6,7-dihydro-5H-pyrrolo[3,4-b]pyridin-5-one] | – | 6.00 to 7.00 | 8.00 to 10.00 | < 5.70 | –
CC1CCC(O)CN1c1ccn(-c2cc(-c3c(F)cccc3C#N)nc3c2C(=O)NC3)n1 (centres unmarked) [I-96, 3-fluoro-2-(4-(3-(5-hydroxy-2-methylpiperidin-1-yl)-1H-pyrazol-1-yl)-5-oxo-6,7-dihydro-5H-pyrrolo[3,4-b]pyridin-2-yl)benzonitrile] | – | 7.00 to 8.00 | 8.00 to 10.00 | < 5.70 | –
N#Cc1cccc(F)c1-c1cc(-n2ccc(N3C[C@@H](O)[C@@H](O)C3)n2)c2c(n1)CNC2=O [I-109, 2-(4-(3-((3S,4R)-3,4-dihydroxypyrrolidin-1-yl)-1H-pyrazol-1-yl)-5-oxo-6,7-dihydro-5H-pyrrolo[3,4-b]pyridin-2-yl)-3-fluorobenzonitrile] | – | 8.00 to 10.00 | 8.00 to 10.00 | < 5.70 | –
CCNC(=O)c1ccn(-c2cc(-c3c(F)cccc3F)nc3c2C(=O)NC3)n1 [I-3, 1-(2-(2,6-difluorophenyl)-5-oxo-6,7-dihydro-5H-pyrrolo[3,4-b]pyridin-4-yl)-N-ethyl-1H-pyrazole-3-carboxamide] | – | 6.00 to 7.00 | 8.00 to 10.00 | < 5.70 | –

More lines, main results first:

pEC50 [1] | pKi (JAK2) | pKi (TYK2) | pEC50 ([2]; Homo sapiens, PBMC) | Compound | pEC50 [2]
5.70 to 7.00 | 7.00 to 8.00 | 8.00 to 10.00 | < 5.70 | CCNC(=O)C1CCCN(c2ccn(-c3cc(-c4c(F)cccc4C#N)nc4c3C(=O)NC4)n2)C1 (centres unmarked) [I-159, 1-(1-(2-(2-cyano-6-fluorophenyl)-5-oxo-6,7-dihydro-5H-pyrrolo[3,4-b]pyridin-4-yl)-1H-pyrazol-3-yl)-N-ethylpiperidine-3-carboxamide] | –
5.70 to 7.00 | 8.00 to 10.00 | 8.00 to 10.00 | < 5.70 | CC(=O)NC1CCCN(c2ccn(-c3cc(-c4c(F)cccc4C#N)nc4c3C(=O)NC4)n2)C1 (centres unmarked) [I-123, N-(1-(1-(2-(2-cyano-6-fluorophenyl)-5-oxo-6,7-dihydro-5H-pyrrolo[3,4-b]pyridin-4-yl)-1H-pyrazol-3-yl)piperidin-3-yl)acetamide] | –
5.70 to 7.00 | 8.00 to 10.00 | 8.00 to 10.00 | 5.70 to 7.00 | N#Cc1cccc(F)c1-c1cc(-n2ccc(N3CCC[C@H](C(=O)N4CCCC4)C3)n2)c2c(n1)CNC2=O [I-168, (S)-3-fluoro-2-(5-oxo-4-(3-(3-(pyrrolidine-1-carbonyl)piperidin-1-yl)-1H-pyrazol-1-yl)-6,7-dihydro-5H-pyrrolo[3,4-b]pyridin-2-yl)benzonitrile] | –
5.70 to 7.00 | 7.00 to 8.00 | 8.00 to 10.00 | 5.70 to 7.00 | C[C@H]1CC[C@@H](O)CN1c1ccn(-c2cc(-c3c(F)cccc3C#N)nc3c2C(=O)NC3)n1 [I-113, 3-fluoro-2-(4-(3-((2S,5R)-5-hydroxy-2-methylpiperidin-1-yl)-1H-pyrazol-1-yl)-5-oxo-6,7-dihydro-5H-pyrrolo[3,4-b]pyridin-2-yl)benzonitrile] | –
7.00 to 7.52 | 8.00 to 10.00 | 8.00 to 10.00 | 5.70 to 7.00 | [2H]C1([2H])NC(=O)c2c(-n3ccc(N4CC[C@@H](O)C4)n3)cc(-c3c(F)cccc3C#N)nc21 [I-114, (R)-3-fluoro-2-(4-(3-(3-hydroxypyrrolidin-1-yl)-1H-pyrazol-1-yl)-5-oxo-6,7-dihydro-5H-pyrrolo[3,4-b]pyridin-2-yl-7,7-d2)benzonitrile] | –
7.00 to 7.52 | 7.00 to 8.00 | 8.00 to 10.00 | 5.70 to 7.00 | N#Cc1cccc(F)c1-c1cc(-n2ccc(N3CC[C@H](O)C3)n2)c2c(n1)CNC2=O [I-79, (S)-3-fluoro-2-(4-(3-(3-hydroxypyrrolidin-1-yl)-1H-pyrazol-1-yl)-5-oxo-6,7-dihydro-5H-pyrrolo[3,4-b]pyridin-2-yl)benzonitrile] | –
7.00 to 7.52 | 8.00 to 10.00 | 10.00 to 11.05 | < 5.70 | N#Cc1cccc(F)c1-c1cc(-n2ccc(N3CC[C@H](O)[C@H](O)C3)n2)c2c(n1)CNC2=O [I-136, 2-(4-(3-((3R,4S)-3,4-dihydroxypiperidin-1-yl)-1H-pyrazol-1-yl)-5-oxo-6,7-dihydro-5H-pyrrolo[3,4-b]pyridin-2-yl)-3-fluorobenzonitrile] | –
5.70 to 7.00 | 7.00 to 8.00 | 8.00 to 10.00 | < 5.70 | CC(=O)N[C@@H]1CCCN(c2ccn(-c3cc(-c4c(F)cccc4C#N)nc4c3C(=O)NC4)n2)C1 [I-129, (R)-N-(1-(1-(2-(2-cyano-6-fluorophenyl)-5-oxo-6,7-dihydro-5H-pyrrolo[3,4-b]pyridin-4-yl)-1H-pyrazol-3-yl)piperidin-3-yl)acetamide] | –
7.00 to 7.52 | – | 8.00 to 10.00 | < 5.70 | CO[C@H]1CN(c2ccn(-c3cc(-c4c(F)cccc4C#N)nc4c3C(=O)NC4)n2)C[C@H]1O [I-153, 3-fluoro-2-(4-(3-((3R,4S)-3-hydroxy-4-methoxypyrrolidin-1-yl)-1H-pyrazol-1-yl)-5-oxo-6,7-dihydro-5H-pyrrolo[3,4-b]pyridin-2-yl)benzonitrile] | –
– | 7.00 to 8.00 | 8.00 to 10.00 | < 5.70 | N#Cc1cccc(F)c1-c1cc(-n2ccc(N3CCCC(O)(C(F)(F)F)C3)n2)c2c(n1)CNC2=O (centres unmarked) [I-80, 3-fluoro-2-(4-(3-(3-hydroxy-3-(trifluoromethyl)piperidin-1-yl)-1H-pyrazol-1-yl)-5-oxo-6,7-dihydro-5H-pyrrolo[3,4-b]pyridin-2-yl)benzonitrile] | –
– | 8.00 to 10.00 | 10.00 to 11.05 | < 5.70 | N#Cc1cccc(F)c1-c1cc(-n2ccc(N3CC[C@@H](F)[C@@H](O)C3)n2)c2c(n1)CNC2=O [I-173, 3-fluoro-2-(4-(3-((3S,4R)-4-fluoro-3-hydroxypiperidin-1-yl)-1H-pyrazol-1-yl)-5-oxo-6,7-dihydro-5H-pyrrolo[3,4-b]pyridin-2-yl)benzonitrile] | –
